Test systems include A549 NSCLC; HCT-116 colon; IGROV1 ovarian; MALME-3M melanoma; NCI-H460 lung; OVCAR-5 ovarian; RPMI-8226 leukemia; SK-MEL-5 melanoma; SNB-19 CNS; UACC-257 melanoma.
What all share (test): NCI anticancer screen, dose series, 48 h

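1) Cells in 96-well plates. 2) Compound, 48 h, 5 concentrations. 3) Linear interpolation between surrounding doses. 4) Unreached endpoint = highest concentration. GI50 = concentration required for 50% inhibition of growth. At the TGI there is no net growth.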

For `Oc1c(Cl)cc(Cl)c(Cl)c1CNCCNCc1c(O)c(Cl)cc(Cl)c1Cl`, the GI50 was 1.11 µM in the assay on A549 NSCLC; 0.731 µM with HCT-116 colon; 0.951 µM in the assay on IGROV1 ovarian; 1.11 µM in the assay on MALME-3M melanoma; 0.44 µM in the assay on NCI-H460 lung; 2.49 µM in the assay with OVCAR-5 ovarian. Moreover, the GI50 in the assay with RPMI-8226 leukemia was 1.51 µM; in the assay with SK-MEL-5 melanoma, 1.35 µM; in the assay on SNB-19 CNS, 1.49 µM; in the assay with UACC-257 melanoma it was 1.76 µM. Besides, the TGI stood at 8.21 µM with A549 NSCLC; 8.52 µM in the assay with HCT-116 colon; 7.8 µM in the assay with IGROV1 ovarian; 9.67 µM in the assay with MALME-3M melanoma; 7.52 µM with NCI-H460 lung; 29 µM in the assay with OVCAR-5 ovarian. The TGI in the assay on RPMI-8226 leukemia is over 50 µM; in the assay with SK-MEL-5 melanoma it was 8.06 µM; in the assay with SNB-19 CNS, 11.3 µM; with UACC-257 melanoma, 9.88 µM.

For the compound `Cc1c(C)c2ccc3oc4ccccc4c3c2oc1=O`, the TGI with A549 NSCLC, in the assay on HCT-116 colon, in the assay with IGROV1 ovarian, with MALME-3M melanoma, in the assay on NCI-H460 lung and in the assay on OVCAR-5 ovarian was over 100 µM each time. Besides, the TGI with RPMI-8226 leukemia, in the assay with SK-MEL-5 melanoma, in the assay with SNB-19 CNS and with UACC-257 melanoma was over 100 µM in each case.

On to `CCc1ccc(Oc2c(-c3ccc(OCc4ccc(Cl)cc4)cc3O)n[nH]c2C(F)(F)F)cc1`, for which the GI50 in the assay with A549 NSCLC is 2.02 µM; in the assay with HCT-116 colon, 1.67 µM; in the assay with IGROV1 ovarian, 2.33 µM; in the assay on MALME-3M melanoma, 1.78 µM; in the assay on NCI-H460 lung, 2.05 µM; in the assay on OVCAR-5 ovarian it was 1.89 µM. Further, the GI50 is 2.33 µM in the assay on RPMI-8226 leukemia, 1.66 µM with SK-MEL-5 melanoma, 1.98 µM in the assay on SNB-19 CNS and 1.84 µM with UACC-257 melanoma. Further, the TGI was determined as 4.22 µM with A549 NSCLC; 3.19 µM in the assay with HCT-116 colon; 6.87 µM in the assay on IGROV1 ovarian; 3.47 µM in the assay with MALME-3M melanoma; 4.1 µM in the assay on NCI-H460 lung; 3.95 µM with OVCAR-5 ovarian. For the same compound, the TGI in the assay on RPMI-8226 leukemia worked out at 5.25 µM; with SK-MEL-5 melanoma, 3.03 µM; in the assay with SNB-19 CNS, 4.21 µM; in the assay on UACC-257 melanoma, 3.8 µM.

On to `Cc1nn(CNc2ccccc2C(F)(F)F)c(=S)n1/N=C/c1cccc2cccnc12`, for which the GI50 is over 100 µM in the assay on A549 NSCLC; 44.6 µM in the assay on HCT-116 colon; 52.3 µM in the assay on IGROV1 ovarian; over 100 µM with MALME-3M melanoma; over 100 µM in the assay on NCI-H460 lung; over 100 µM in the assay with OVCAR-5 ovarian. For the same compound, the GI50 with RPMI-8226 leukemia is 28.8 µM; in the assay with SK-MEL-5 melanoma, over 100 µM; in the assay with SNB-19 CNS it was over 100 µM; with UACC-257 melanoma, over 100 µM. Moreover, the TGI in the assay on A549 NSCLC, in the assay on HCT-116 colon, with IGROV1 ovarian, in the assay with MALME-3M melanoma, with NCI-H460 lung and in the assay with OVCAR-5 ovarian was over 100 µM in each case. Besides, the TGI with RPMI-8226 leukemia, in the assay on SK-MEL-5 melanoma, with SNB-19 CNS and in the assay on UACC-257 melanoma was over 100 µM in each case.

For the compound `C=CCC1(CN(C)C)CC/C(=C\c2ccc(OC)cc2)C1=O` (centres undefined), the TGI with A549 NSCLC, in the assay on HCT-116 colon, with IGROV1 ovarian, in the assay on MALME-3M melanoma, in the assay with NCI-H460 lung and with OVCAR-5 ovarian was over 100 µM throughout. Further, the TGI in the assay on RPMI-8226 leukemia is 52.6 µM; with SK-MEL-5 melanoma, over 100 µM; in the assay on SNB-19 CNS it was over 100 µM; in the assay on UACC-257 melanoma, over 100 µM.

For `Fc1ccc(-c2c(-c3ccncc3)nc3n2CCS3)cc1`, the GI50 with A549 NSCLC, with HCT-116 colon, with IGROV1 ovarian, in the assay on MALME-3M melanoma, with NCI-H460 lung and with OVCAR-5 ovarian was over 25 µM each time. The GI50 with RPMI-8226 leukemia, in the assay on SK-MEL-5 melanoma, in the assay with SNB-19 CNS and in the assay with UACC-257 melanoma was over 25 µM in each case. Besides, the TGI in the assay on A549 NSCLC, with HCT-116 colon, with IGROV1 ovarian, with MALME-3M melanoma, with NCI-H460 lung and in the assay on OVCAR-5 ovarian was over 25 µM throughout. The TGI in the assay on RPMI-8226 leukemia, with SK-MEL-5 melanoma, with SNB-19 CNS and in the assay on UACC-257 melanoma was over 25 µM each time.

As to `CC(C)N(C(=O)C12C3C4C5(C#N)C3C1(C#N)C5C42C#N)C(C)C` (centres undefined), the TGI in the assay with A549 NSCLC, in the assay on HCT-116 colon, in the assay on IGROV1 ovarian, with MALME-3M melanoma, in the assay with NCI-H460 lung and with OVCAR-5 ovarian was over 100 µM in each case. Moreover, the TGI with RPMI-8226 leukemia, with SK-MEL-5 melanoma, in the assay on SNB-19 CNS and in the assay with UACC-257 melanoma was over 100 µM throughout.

On to `COc1ccc(Nc2nc3cc(N)cc(N)c3nc2-c2ccccc2)cc1`, for which the GI50 was 27.8 µM with A549 NSCLC; 14.9 µM in the assay with HCT-116 colon; 15.4 µM in the assay with IGROV1 ovarian; 15 µM in the assay on MALME-3M melanoma; 26.8 µM with NCI-H460 lung; 21.5 µM with OVCAR-5 ovarian. Besides, the GI50 in the assay with RPMI-8226 leukemia is 19.1 µM; with SK-MEL-5 melanoma, 15.3 µM; in the assay on SNB-19 CNS, 33.8 µM. Moreover, the TGI with A549 NSCLC is over 100 µM; in the assay with HCT-116 colon, 28.1 µM; with IGROV1 ovarian, 35.8 µM; in the assay with MALME-3M melanoma, 28.3 µM; with NCI-H460 lung, 89.9 µM; with OVCAR-5 ovarian it was 53.4 µM. Also, the TGI with RPMI-8226 leukemia was over 100 µM; in the assay with SK-MEL-5 melanoma it was 28.6 µM; in the assay with SNB-19 CNS, over 100 µM; with UACC-257 melanoma, 27.5 µM.

With `C[C@@H](Oc1cc(-n2cnc3ccc(OC4CCN(C)CC4)cc32)sc1C(N)=O)c1ccccc1Cl`, the GI50 in the assay on A549 NSCLC is 0.0183 µM; in the assay on HCT-116 colon it was 0.0156 µM; with IGROV1 ovarian, 0.0622 µM; with MALME-3M melanoma, 3.89 µM; in the assay with NCI-H460 lung, 0.0126 µM; with OVCAR-5 ovarian, 0.024 µM. Moreover, the GI50 in the assay with RPMI-8226 leukemia is 0.0842 µM; in the assay with SK-MEL-5 melanoma it was 0.0306 µM; in the assay on SNB-19 CNS, 0.07 µM; with UACC-257 melanoma it was 0.0249 µM. The TGI with A549 NSCLC came out at 3 µM; in the assay with HCT-116 colon, 3.15 µM; in the assay on IGROV1 ovarian, 6.88 µM; in the assay with MALME-3M melanoma it was 7.89 µM; in the assay on NCI-H460 lung, 3.19 µM; with OVCAR-5 ovarian, 5.76 µM. In addition, the TGI in the assay with RPMI-8226 leukemia was determined as 6.66 µM; with SK-MEL-5 melanoma, 0.777 µM; in the assay on SNB-19 CNS it was 13.2 µM; with UACC-257 melanoma it was 5.4 µM.

The record behind these values is PubChem BioAssay (NCI).
